In one test the test system is HEK293E cells. Nature of the test: Alternative transgene TNFR-Fc, batch titer by ELISA (Example 4). Type of test: cell-based, Human. As to conditions: 3.8 mmol/l final VPA, day 5 after transfection. The method, then: 10 million suspension-adapted HEK293E cells were resuspended in 0.5 ml of Ex-Cell 293 HEK 293 serum-free medium with 4 mmol/l L-glutamine (Cat. No. 14571C-[…]; Lot No. 6A0093; SAFC Biosciences, Lenexa, Kans., USA, “Ex-Cell” medium; note: “Ex-Cell” medium-as used herein-refers to a medium comprising 4 mmol/l L-glutamine) in a 50-ml filter tube each (TPP AG, Trasadingen, Switzerland; Cat. No. 87050, Lot 20050174). In a separate set, 10 million suspension-adapted CHO DG44 cells were resuspended in 0.5 ml of ProCHO5 serum-free medium with 4 mmol/[…] hypoxanthine and 0.194 g/l thymidine (BioWhittaker (Lonza), Belgium; Cat. No. BE12-[…]; Lot No. 7MB0040; “ProCHO5” medium; note: “ProCHO5” medium-as used herein-refers to a medium comprising 4 mmol/[…] hypoxanthine and 0.194 g/l thymidine) in a 50-ml filter tube each (TPP AG, Trasadingen, Switzerland; Cat. No. 87050, Lot 20050174). […] In short, Goat Anti-Human IgG (Fc Fragment specific; Jackson ImmunoResearch Laboratories Inc., West Grove, Pa., USA; Code Number 109-006-098; Lot No. 72349) was used for coating the ELISA-plates, and with AP-conjugated goat anti-human gamma chain IgG (Biosource) the synthesized TNFR-Fc was detected. […] Absorption was measured at 405 nm against 490 nm using a microplate reader (SPECTRAmaxTM340; Molecular Devices, Palo Alto, Calif., USA).
In general terms: ELISA stands for enzyme-linked immunosorbent assay.

For another test, the system named is CHO DG44 cells. The test is described as follows: Influence of temperature on IgG batch titer and comparison with sodium butyrate (Example 2). Type of test: cell-based, Chinese Hamster. As to conditions: day 5 after transfection. The protocol:
No. 14571C-[…]; Lot No. 6A0093; SAFC Biosciences, Lenexa, Kans., USA, “Ex-Cell” medium; note: “Ex-Cell” medium-as used herein-refers to a medium comprising 4 mmol/l L-glutamine) in a 50-ml filter tube each (TPP AG, Trasadingen, Switzerland; Cat. No. 87050, Lot 20050174). In a separate set, 10 million suspension-adapted CHO DG44 cells were resuspended in 0.5 ml of ProCHO5 serum-free medium with 4 mmol/[…] hypoxanthine and 0.194 g/l thymidine (BioWhittaker (Lonza), Belgium; Cat. No. BE12-[…]; Lot No. 7 MB0040; “ProCHO5” medium; note: “ProCHO5” medium-as used herein-refers to a medium comprising 4 mmol/[…] hypoxanthine and 0.194 g/l thymidine) in a 50-ml filter tube each (TPP AG, Trasadingen, Switzerland; Cat. No. 87050, Lot 20050174). Then 12.5 μg plasmid DNA at a concentration of 1 μg/μl was added in each tube with the following composition 50% (6.25 μg) p-LC (SEQ ID NO: 1) 50% (6.25 μg) p-HC (SEQ ID NO: 3). Plasmid p-LC comprises the genetic information for the production of the light chain of an IgG antibody, plasmid p-HC comprises the genetic information for the production of the heavy chain of an IgG antibody. The particular vector constructs used in the present invention can also be obtained from the inventors. The inventors can be contacted via e-mail at […]. Moreover, commercial services do exist that produce any desired nucleotide sequence even comprising several kilobase pairs including complete expression cassettes in plasmid backgrounds (e.g., Invitrogen, Carlsbad, USA; Geneart, Germany.) Thus, providing the genetic sequence information of the plasmids should enable one of ordinary skill in the art to order the plasmids of the present invention at one of the commercial services listed. After shortly mixing the DNA with the cells by gentle shaking, 25 μg of 25-kd linear polyethyleneimine (“PEI”; Polysciences, Eppelheim, Germany; [2]) were added at a concentration of 1 μg/μl to each of the tubes. After shortly mixing by gentle shaking, the filter tubes containing the cells together with the DNA and PEI were transferred into an orbital shaker (Kühner Shaker Cabinet ISF-4-W, “Kühner shaker”, Kühner AG, Birsfelden, Switzerland), and the cells were incubated for 4 hours at 37° C. in a 5% CO2 atmosphere under shaking at 180 rpm. After that time, 4.5 ml of Ex-Cell medium were added to each of the filter tubes containing HEK 293 cells and 4.5 ml of Pro-CHO5 were added to each of the filter tubes containing CHO DG44 cells. […] No. […] Sigma-Aldrich Chemie GmbH, Industriestrasse 25, CH-9471 Buchs SG) was added to the corresponding tubes at the corresponding final concentrations. The cells then were returned into the Kühner shaker. Half the tubes were incubated at 37° C. in a 5% CO2 atmosphere under shaking at 180 rpm, the other half was incubated at 31° C. […] The ELISA was performed as published in prior art. In short, Goat anti-human kappa light chain IgG (Biosource) was used for coating the ELISA-plates, and with AP-conjugated goat anti-human gamma chain IgG (Biosource) the synthesized IgG1 was detected. NPP was used as a substrate for the alkaline phosphatase. Absorption was measured at 405 nm against 490 nm using a microplate reader (SPECTRAmaxTM340; Molecular Devices, Palo Alto, Calif., USA).

Where [1] appears, read: 3.8 mmol/l VPA, relative to control = 1.

Molecules are shown by their SMILES.

Take `CCCC(CCC)C(=O)O` [VPA, valproic acid]: in the test with HEK293E cells, the Batch titer stood at 159.5 ± 12.0 mg/L and the “Fold increase over control” value came out at 4.5 fold. Also, in the test on CHO DG44 cells (setting [1]), the “Batch titer increase at 31° C.” value is on record as 1.5 ± 0.1 and the “Batch titer increase at 37° C.” value is given as 2.1 ± 0.1. In the test with CHO DG44 cells (31° C. and 37° C.), the “performance compared with sodium butyrate (batch titer increase)” value is recorded as “slightly better performance than sodium butyrate”.
